Assay results reported in paper PMC9884089 (Journal of Medicinal Chemistry, 2023).
Like-named read-outs stand apart in the source and are kept apart here. One block for each compound: values may come before it.

Tests used:
PARP2 = target: T1, PARP2 (Homo sapiens, UniProt Q9UGN5); experiment: biochemical; format: biochemical; details: > = less than 50% inhibition at highest concentration; ≫ = no inhibition; read-out: PARP2 IC50
T1 construct: made in house

PARP10 [1] = target: T2, PARP10 (Homo sapiens, UniProt Q53GL7); experiment: biochemical; format: biochemical
T2 construct: made in house
T2 sequence (Q53GL7 1-1025): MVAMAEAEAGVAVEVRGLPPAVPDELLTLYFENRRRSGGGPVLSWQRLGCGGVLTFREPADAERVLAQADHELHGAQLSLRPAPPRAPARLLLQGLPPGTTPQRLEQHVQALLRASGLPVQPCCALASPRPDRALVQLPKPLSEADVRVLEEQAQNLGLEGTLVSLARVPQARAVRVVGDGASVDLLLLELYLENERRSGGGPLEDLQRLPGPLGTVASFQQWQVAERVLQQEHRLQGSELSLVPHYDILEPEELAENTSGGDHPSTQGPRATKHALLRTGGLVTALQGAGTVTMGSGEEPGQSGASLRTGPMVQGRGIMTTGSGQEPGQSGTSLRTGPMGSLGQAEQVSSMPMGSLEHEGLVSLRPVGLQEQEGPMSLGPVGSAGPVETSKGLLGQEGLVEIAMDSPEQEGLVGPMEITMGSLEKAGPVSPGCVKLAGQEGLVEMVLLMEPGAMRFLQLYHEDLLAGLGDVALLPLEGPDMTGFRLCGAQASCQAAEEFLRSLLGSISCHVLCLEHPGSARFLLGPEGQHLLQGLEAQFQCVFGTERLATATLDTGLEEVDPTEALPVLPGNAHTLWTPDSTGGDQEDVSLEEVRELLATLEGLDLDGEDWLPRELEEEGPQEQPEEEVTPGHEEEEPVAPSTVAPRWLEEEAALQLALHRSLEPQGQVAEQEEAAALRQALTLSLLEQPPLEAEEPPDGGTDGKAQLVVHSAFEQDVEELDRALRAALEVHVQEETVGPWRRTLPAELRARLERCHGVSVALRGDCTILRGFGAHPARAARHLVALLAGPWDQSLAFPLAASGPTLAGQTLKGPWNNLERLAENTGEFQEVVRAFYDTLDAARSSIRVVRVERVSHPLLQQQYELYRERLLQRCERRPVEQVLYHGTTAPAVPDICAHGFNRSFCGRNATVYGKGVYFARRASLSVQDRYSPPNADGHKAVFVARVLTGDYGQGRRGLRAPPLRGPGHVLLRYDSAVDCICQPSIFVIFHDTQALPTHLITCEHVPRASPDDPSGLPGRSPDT

PARP15 = target: T3, PARP15 (Homo sapiens, UniProt Q460N3); experiment: biochemical; format: biochemical
T3 construct: made in house
T3 sequence (Q460N3 1-678): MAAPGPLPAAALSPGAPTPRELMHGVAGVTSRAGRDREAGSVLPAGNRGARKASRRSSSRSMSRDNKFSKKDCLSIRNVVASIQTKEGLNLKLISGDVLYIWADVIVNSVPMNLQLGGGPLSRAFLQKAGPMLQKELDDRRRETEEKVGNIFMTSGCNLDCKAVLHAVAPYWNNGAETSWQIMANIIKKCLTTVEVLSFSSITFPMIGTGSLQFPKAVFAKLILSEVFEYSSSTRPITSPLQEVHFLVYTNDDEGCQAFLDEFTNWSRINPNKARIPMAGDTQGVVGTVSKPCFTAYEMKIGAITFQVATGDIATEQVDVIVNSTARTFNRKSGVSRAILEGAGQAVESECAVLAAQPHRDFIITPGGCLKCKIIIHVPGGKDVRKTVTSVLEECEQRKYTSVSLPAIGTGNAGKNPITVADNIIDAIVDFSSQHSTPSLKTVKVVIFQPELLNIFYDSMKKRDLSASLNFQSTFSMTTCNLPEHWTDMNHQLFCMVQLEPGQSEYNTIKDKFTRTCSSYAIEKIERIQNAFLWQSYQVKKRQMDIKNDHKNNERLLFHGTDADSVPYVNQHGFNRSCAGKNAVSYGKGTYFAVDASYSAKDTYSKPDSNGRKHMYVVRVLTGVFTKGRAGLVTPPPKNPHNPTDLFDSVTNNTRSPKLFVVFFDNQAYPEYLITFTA

TNKS2 [2] = target: T4, TNKS2 (Homo sapiens, UniProt Q9H2K2); experiment: biochemical; details: read-out: TNKS2 IC50; > = less than 50% inhibition at highest concentration
T4 sequence (Q9H2K2 1-1166): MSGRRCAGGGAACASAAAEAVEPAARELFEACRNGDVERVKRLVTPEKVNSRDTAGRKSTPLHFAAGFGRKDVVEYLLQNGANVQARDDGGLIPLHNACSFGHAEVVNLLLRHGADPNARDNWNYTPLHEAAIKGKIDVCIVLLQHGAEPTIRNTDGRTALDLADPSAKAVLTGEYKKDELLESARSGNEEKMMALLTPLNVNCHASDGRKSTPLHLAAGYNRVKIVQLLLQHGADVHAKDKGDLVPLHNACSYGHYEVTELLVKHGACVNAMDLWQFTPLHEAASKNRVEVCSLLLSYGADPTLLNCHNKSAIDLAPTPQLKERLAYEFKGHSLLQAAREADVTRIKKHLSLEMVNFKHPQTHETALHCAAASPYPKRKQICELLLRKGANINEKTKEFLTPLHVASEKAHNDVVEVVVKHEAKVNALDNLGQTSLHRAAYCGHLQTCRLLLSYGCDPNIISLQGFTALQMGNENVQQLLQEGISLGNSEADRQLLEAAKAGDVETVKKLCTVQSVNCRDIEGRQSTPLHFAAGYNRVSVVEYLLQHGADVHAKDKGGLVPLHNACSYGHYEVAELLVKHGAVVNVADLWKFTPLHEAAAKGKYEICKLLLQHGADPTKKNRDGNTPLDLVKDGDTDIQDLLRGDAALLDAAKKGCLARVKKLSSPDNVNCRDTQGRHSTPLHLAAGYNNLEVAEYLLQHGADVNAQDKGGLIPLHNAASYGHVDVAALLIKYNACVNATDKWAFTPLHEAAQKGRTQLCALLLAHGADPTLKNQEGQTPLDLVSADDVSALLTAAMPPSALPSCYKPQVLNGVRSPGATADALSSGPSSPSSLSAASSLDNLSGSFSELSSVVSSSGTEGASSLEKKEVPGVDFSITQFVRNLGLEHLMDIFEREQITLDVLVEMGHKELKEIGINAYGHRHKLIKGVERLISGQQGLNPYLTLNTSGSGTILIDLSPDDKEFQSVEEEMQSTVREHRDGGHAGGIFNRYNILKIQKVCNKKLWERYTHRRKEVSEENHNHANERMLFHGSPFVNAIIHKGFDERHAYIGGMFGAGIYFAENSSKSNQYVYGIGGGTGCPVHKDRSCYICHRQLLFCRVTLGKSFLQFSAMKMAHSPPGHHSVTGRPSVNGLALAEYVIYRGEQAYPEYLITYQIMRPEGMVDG
Method: The proteins used in Tables 1–3 were produced as described earlier. Dockerin constructs to allow enhanced activity assays for mono-ARTs (Table 4) were produced in Escherichia coli with an N-terminal maltose binding protein (MBP) and a C-terminal dockerin domain from Hungateiclostridium thermocellum Cel48s as described recently.[47]
Inhibition experiments were performed using a homogenous assay measuring NAD+ consumption.[80]−[82] Reactions were carried out in quadruplicate, and IC50 curves were fitted using sigmoidal dose response curve (four variables) in GraphPad Prism version 8.02. […] Assay conditions for PARP2, TNKS2, PARP10, and PARP15 (Tables 1–3) were recently reported.[44] The conditions for the proximity-enhanced mono-ART assays (Table 4) were also reported recently.[47] PARP6 (400 nM) inhibition was measured using the standard buffer (50 mM sodium phosphate pH 7.0) for the enhanced activity assay using 500 nM NAD^+ and 18 h incubation in r.t..

HEK293T cells = experiment: Cell viability assay (colorimetric WST-1); format: cell-based, human; details: HEK293T, 100, 50 and 10 μM, 24 h
Method: Cell viability was assessed by colorimetric WST-1 (Cellpro-Roche, Sigma-Aldrich) assay following manufacturer’s instructions. […] Also, DMSO and 10 mM hydroxyurea (Sigma) were used as internal controls for induced cell toxicity. […] Thereafter, WST-1 reagent was pipetted followed by 2 h incubation and absorbance measuring by a Tecan Infinite M1000 or a Tecan Spark (Tecan) plate reader. The assay was performed in triplicate and repeated at least three times. Data were normalized to DMSO control.

TNKS1/2 = details: Figure 1; cited from earlier work
PARP11 = details: Figure 1 ref 42; cited from earlier work
TNKS2 [3] = details: Figure 1 ref 19; cited from earlier work
PARP10 [4] = target: T2, PARP10; experiment: Cellular MARylation assay (immunoblot of PARP10 auto-MARylation); format: cell-based; details: 10 μM, 16 h, HeLa cells
Method: Cells were lysed in RIPA lysis buffer [10 mM Tris pH 7.4; 150 mM NaCl; 1% NP-40; 1% desoxycholate; 0,1% SDS; protease inhibitor cocktail (Sigma-Aldrich) and 10 μM olaparib (Selleck Chemicals)], and lysates were analyzed via SDS-PAGE and immunoblotting using specific anti-PARP10 (Eurogentec),[93] anti-MAR/PAR (Cell Signaling, E6F6A, anti-poly/Mono-ADP-ribose antibody), and anti-α-tubulin (B 5-1-2, Sigma-Aldrich) antibodies.

PARP10 [5] = details: Figure 1 ref 35; cited from earlier work
PARP7 = details: Figure 1 ref 40; cited from earlier work
[6] = standard assay (Tables 1-3), * value limited by the protein concentration used, > less than 50% inhibition, ≫ no inhibition at the concentration, read-out: PARP15 IC50

T1 sequence (Q9UGN5 whole entry): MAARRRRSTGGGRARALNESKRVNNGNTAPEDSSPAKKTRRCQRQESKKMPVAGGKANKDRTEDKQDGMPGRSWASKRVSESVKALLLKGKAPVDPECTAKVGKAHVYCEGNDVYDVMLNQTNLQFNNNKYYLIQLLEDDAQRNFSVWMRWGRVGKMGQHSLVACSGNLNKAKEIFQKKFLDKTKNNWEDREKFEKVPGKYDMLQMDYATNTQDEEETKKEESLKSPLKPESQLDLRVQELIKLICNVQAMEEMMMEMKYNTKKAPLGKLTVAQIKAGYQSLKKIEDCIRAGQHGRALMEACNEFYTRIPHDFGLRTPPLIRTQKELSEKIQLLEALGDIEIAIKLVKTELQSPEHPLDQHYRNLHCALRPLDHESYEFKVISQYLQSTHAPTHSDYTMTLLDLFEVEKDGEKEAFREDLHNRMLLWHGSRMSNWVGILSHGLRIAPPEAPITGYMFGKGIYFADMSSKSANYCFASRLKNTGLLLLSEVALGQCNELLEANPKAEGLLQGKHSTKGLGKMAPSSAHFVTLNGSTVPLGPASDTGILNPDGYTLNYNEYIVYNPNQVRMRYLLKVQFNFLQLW

Structure (SMILES): O=c1[nH]nc2c3c(cccc13)N=C(CN1Cc3ccccc3C1)N2 [E7449]
IC50 (TNKS1/2): 0.05 µM

Structure (SMILES): CC#Cc1ccc2c(=O)[nH]c(CSc3ncccn3)nc2c1C [ITK7]
IC50 (PARP11): 0.014 µM

Structure (SMILES): CCOc1ccc(-c2nnc([C@H]3C[C@H](NC(=O)c4cccc5c4NCCN5)C3)n2-c2ccccc2F)nc1 [OM-153]
IC50 (TNKS2 [3]): 0.002 µM

Structure (SMILES): NC(=O)c1ccc(OCC2CCC2)cc1 [OUL238]
IC50 (PARP10 [5]): 0.29 µM

The next lines start with results.

IC50 (PARP2): 5.3 µM
IC50 (PARP10 [1]; standard assay (Tables 1-3), * value limited by the protein concentration used, > less than 50% inhibition, ≫ no inhibition at the concentration, read-out: PARP10 IC50): > 10 µM
IC50 (PARP15; [6]): > 10 µM
IC50 (TNKS2 [2]): 2.5 µM
Structure (SMILES): c1ccc2c(c1)sc1nncn12 [Compound 2]

IC50 (PARP2): 4.5 µM
IC50 (TNKS2 [2]): 9.5 µM
Structure (SMILES): CC(C)c1ccc2c(c1)sc1nncn12 [Compound 6, 7-Isopropyl[1,2,4]triazolo[3,4-b][1,3]benzothiazole]
cell toxicity (WST-1) (HEK293T cells): toxic in a dose-dependent manner

IC50 (PARP2): 0.24 µM
IC50 (TNKS2 [2]): 3.1 µM
Structure (SMILES): Oc1ccc(O)c2c1sc1nncn12 [Compound 18, [1,2,4]Triazolo[3,4-b][1,3]benzothiazol-5,8-diol]
cell toxicity (WST-1) (HEK293T cells): toxic in a dose-dependent manner

IC50 (PARP10 [1]): > 10 µM
IC50 (PARP15): > 10 µM
Structure (SMILES): COc1ccc(OC)c2c1sc1nnc(SC)n12 [Compound 28]

IC50 (PARP10 [1]): > 10 µM
IC50 (PARP15; [6]): 7.9 µM
Structure (SMILES): COc1ccc(OC)c2c1sc1nnc(NC(=O)c3ccc(Cl)cc3)n12 [Compound 29]

inhibition of auto-MARylation of overexpressed PARP10 in cells (PARP10 [4]): did not observe a MAR-signal
Structure (SMILES): NC(=O)c1ccc(Oc2ccc(C(N)=O)cc2)cc1 [OUL35, reference compound]
